Assays:
LADY SMARTWEED [1] = experiment: Test E; format: in vivo, Polygonum persicaria
From the text: Seeds of the following crops and weeds are sown into 15 cm pots containing Sassafras sandy loam soil: wheat (Triticum aestivum cv. Park), barley (Hordeum vulgare cv. Bonanza), sugarbeet (Beta vulgaris cv. USH-11), rapeseed (Brassica napus cv. Jet Neuf), black nightshade (Solanum nigrum), chickweed (Stellaria media), lambsquarter (Chenopodium album), Galium aparine, knotweed (Polygonum aviculare), Kochia scoparia, Matricaria indora, redroot pigweed (Amaranthus retroflexus), smartweed (Polygonum persicaria), speedwell (Veronica persica), wild buckwheat (Polygonum convolvulus), wild mustard (Brassica spp.), wild radish (Raphanus raphanistrum), annual bluegrass (PO annua), annual ryegrass (Lolium multiflorum), blackgrass (Alopercurus mysuroides), green foxtail (Setaria viridis), and wild oats (Avena fatua). Compounds are formulated in a nonphytotoxic solvent and applied to the plants as a foliar spray or applied to the soil surface. Plants are treated at two stages: preemergence, or postemergence when the sugarbeets are at the 2-3 true leaf stage. Plants are grown in a temperature-controlled greenhouse for the duration of the test.
Weed control and crop injury are evaluated visually at 3-4 weeks after compound application, using a scale of 0 to 100%, where 0=no injury and 100=complete death of the plant. All plants are rated with respect to untreated plants (checks) grown in the greenhouse under identical conditions to the treated plants.

COKER COTTON = experiment: Test F; format: in vivo, Gossypium hirsutum
From the text: (§1) Weed species were planted 3 or 4 per 15-cm diameter pot in Sassafras sandy loam (pH 6.8; 1% OM). Cotton was planted separately in the same sized pot. Postemergence plantings were made 12-16 days prior to treating so plants were in the 2- to 3-leaf stage (5-12 cm tall). Preemergence plantings were made the day before treating. Compounds were sprayed in a suitable non-phytotoxic solvent at 374 l/ha, then after 3 weeks of growth in a greenhouse, plant responses were visually rated on a percent scale where 0=no injury and 100=plant death.

VELVETLEAF = experiment: Test F; format: in vivo, Abutilon theophrasti
From the text: as §1

SICKLEPOD = experiment: Test F; format: in vivo, Cassia obtusifolia
From the text: as §1

COCKLEBUR = experiment: Test F; format: in vivo, Xanthium pensylvanicum
From the text: as §1

CMN PURSLANE = experiment: Test F; format: in vivo, Portulaca oleracea
From the text: as §1

IVY MORNINGGLORY = experiment: Test F; format: in vivo, Ipomoea hederacea
From the text: as §1

GOOSEGRASS = experiment: Test F; format: in vivo, Eleusine indica
From the text: as §1

BERMUDAGRASS = experiment: Test F; format: in vivo, Cynodon dactylon
From the text: as §1

JOHNSONGRASS = experiment: Test F; format: in vivo, Sorghum halepense
From the text: as §1

LARGE CRABGRASS = experiment: Test F; format: in vivo, Digitaria sanguinalis
From the text: as §1

BRDLF SNGLGRASS = experiment: Test F; format: in vivo, Brachiaria platyphylla
From the text: as §1

PURPLE NUTSEDGE = experiment: Test F; format: in vivo, Cyperus rotundus
From the text: as §1

LADY SMARTWEED [2] = experiment: Test F; format: in vivo, Polygonum persicaria
From the text: as §1

RICE JAP TOL = experiment: Test C rice paddy; format: in vivo, Japonica rice; conditions: 21 days
Summary of the method: (§2)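 Chemicals were applied as a water treatment to flooded pots (3 cm depth, kept constant) within 24 h of flooding, which occurred 3–4 days after planting. Weeds were grown from seedlings, sprouted tubers or seed alongside separately potted transplanted rice.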

RICE INDICA TOL = experiment: Test C rice paddy; format: in vivo; conditions: 21 days
Summary of the method: as §2

C=C(c1ccc(F)cc1)C(O)(Cn1cncn1)c1ccccc1F (stereo not drawn) [Example 644]
plant response (LADY SMARTWEED [1]; POSTEMERGENCE 0064 GM/HA): 0% | plant response (LADY SMARTWEED [1]; POSTEMERGENCE 0125 GM/HA): 100% | plant response (LADY SMARTWEED [1]; POSTEMERGENCE 0250 GM/HA): 100% | plant response (LADY SMARTWEED [1]; POSTEMERGENCE 0500 GM/HA): 100%

C=C(c1ccc(F)cc1)C(O)(Cn1cncn1)c1ccc(F)cc1F (stereo not drawn) [Example 4, 2-(2,4-Difluorophenyl)-3-(4-fluorophenyl)-1-(1H-1,2,4-triazol-1-yl)-3-buten-2-ol]
plant response (LADY SMARTWEED [1]; PREEMERGENCE 0500 GM/HA): 100% | plant response (COKER COTTON; PREEMERGENCE 0032 GM/HA): 0% | plant response (COKER COTTON; PREEMERGENCE 0064 GM/HA): 0% | plant response (COKER COTTON; PREEMERGENCE 0125 GM/HA): 0% | plant response (COKER COTTON; PREEMERGENCE 0250 GM/HA): 0% | plant response (COKER COTTON; PREEMERGENCE 0500 GM/HA): 0% | plant response (VELVETLEAF; PREEMERGENCE 0032 GM/HA): 0% | plant response (VELVETLEAF; PREEMERGENCE 0064 GM/HA): 0% | plant response (VELVETLEAF; PREEMERGENCE 0125 GM/HA): 0% | plant response (VELVETLEAF; PREEMERGENCE 0250 GM/HA): 0% | plant response (VELVETLEAF; PREEMERGENCE 0500 GM/HA): 30% | plant response (SICKLEPOD; PREEMERGENCE 0032 GM/HA): 0% | plant response (SICKLEPOD; PREEMERGENCE 0064 GM/HA): 0% | plant response (SICKLEPOD; PREEMERGENCE 0125 GM/HA): 0% | plant response (SICKLEPOD; PREEMERGENCE 0250 GM/HA): 0% | plant response (SICKLEPOD; PREEMERGENCE 0500 GM/HA): 0% | plant response (COCKLEBUR; PREEMERGENCE 0032 GM/HA): 0% | plant response (COCKLEBUR; PREEMERGENCE 0064 GM/HA): 0% | plant response (COCKLEBUR; PREEMERGENCE 0125 GM/HA): 0% | plant response (COCKLEBUR; PREEMERGENCE 0250 GM/HA): 0% | plant response (COCKLEBUR; PREEMERGENCE 0500 GM/HA): 0% | plant response (CMN PURSLANE; PREEMERGENCE 0032 GM/HA): 0% | plant response (CMN PURSLANE; PREEMERGENCE 0064 GM/HA): 20% | plant response (CMN PURSLANE; PREEMERGENCE 0125 GM/HA): 30% | plant response (CMN PURSLANE; PREEMERGENCE 0250 GM/HA): 30% | plant response (CMN PURSLANE; PREEMERGENCE 0500 GM/HA): 80% | plant response (IVY MORNINGGLORY; PREEMERGENCE 0032 GM/HA): 0% | plant response (IVY MORNINGGLORY; PREEMERGENCE 0064 GM/HA): 0% | plant response (IVY MORNINGGLORY; PREEMERGENCE 0125 GM/HA): 0% | plant response (IVY MORNINGGLORY; PREEMERGENCE 0250 GM/HA): 0% | plant response (IVY MORNINGGLORY; PREEMERGENCE 0500 GM/HA): 0% | plant response (GOOSEGRASS; PREEMERGENCE 0032 GM/HA): 80% | plant response (GOOSEGRASS; PREEMERGENCE 0064 GM/HA): 80% | plant response (GOOSEGRASS; PREEMERGENCE 0125 GM/HA): 100% | plant response (GOOSEGRASS; PREEMERGENCE 0250 GM/HA): 100% | plant response (GOOSEGRASS; PREEMERGENCE 0500 GM/HA): 100% | plant response (BERMUDAGRASS; PREEMERGENCE 0032 GM/HA): 0% | plant response (BERMUDAGRASS; PREEMERGENCE 0064 GM/HA): 20% | plant response (BERMUDAGRASS; PREEMERGENCE 0125 GM/HA): 95% | plant response (BERMUDAGRASS; PREEMERGENCE 0250 GM/HA): 100% | plant response (BERMUDAGRASS; PREEMERGENCE 0500 GM/HA): 100% | plant response (JOHNSONGRASS; PREEMERGENCE 0032 GM/HA): 0% | plant response (JOHNSONGRASS; PREEMERGENCE 0064 GM/HA): 0% | plant response (JOHNSONGRASS; PREEMERGENCE 0125 GM/HA): 20% | plant response (JOHNSONGRASS; PREEMERGENCE 0250 GM/HA): 50% | plant response (JOHNSONGRASS; PREEMERGENCE 0500 GM/HA): 50% | plant response (LARGE CRABGRASS; PREEMERGENCE 0032 GM/HA): 0% | plant response (LARGE CRABGRASS; PREEMERGENCE 0064 GM/HA): 20% | plant response (LARGE CRABGRASS; PREEMERGENCE 0125 GM/HA): 100% | plant response (LARGE CRABGRASS; PREEMERGENCE 0250 GM/HA): 100% | plant response (LARGE CRABGRASS; PREEMERGENCE 0500 GM/HA): 100% | plant response (BRDLF SNGLGRASS; PREEMERGENCE 0032 GM/HA): 0% | plant response (BRDLF SNGLGRASS; PREEMERGENCE 0064 GM/HA): 0% | plant response (BRDLF SNGLGRASS; PREEMERGENCE 0125 GM/HA): 0% | plant response (BRDLF SNGLGRASS; PREEMERGENCE 0250 GM/HA): 0% | plant response (BRDLF SNGLGRASS; PREEMERGENCE 0500 GM/HA): 30% | plant response (PURPLE NUTSEDGE; PREEMERGENCE 0032 GM/HA): 0% | plant response (PURPLE NUTSEDGE; PREEMERGENCE 0064 GM/HA): 0% | plant response (PURPLE NUTSEDGE; PREEMERGENCE 0125 GM/HA): 0% | plant response (PURPLE NUTSEDGE; PREEMERGENCE 0250 GM/HA): 0% | plant response (PURPLE NUTSEDGE; PREEMERGENCE 0500 GM/HA): 0% | plant response (LADY SMARTWEED [2]; PREEMERGENCE 0032 GM/HA): 0% | plant response (LADY SMARTWEED [2]; PREEMERGENCE 0064 GM/HA): 0% | plant response (LADY SMARTWEED [2]; PREEMERGENCE 0125 GM/HA): 0% | plant response (LADY SMARTWEED [2]; PREEMERGENCE 0250 GM/HA): 20% | plant response (LADY SMARTWEED [2]; PREEMERGENCE 0500 GM/HA): 20%

C=C(c1ccccc1Cl)C(O)(Cn1cncn1)c1ccc(F)cc1F (stereo not drawn) [Example 35]
plant response (RICE JAP TOL; 0032 G/HA): 0 | plant response (RICE JAP TOL; 0125 G/HA): 20 | plant response (RICE JAP TOL; 0500 G/HA): 50 | plant response (RICE JAP TOL; 2000 G/HA): 50 | plant response (RICE INDICA TOL; 0032 G/HA): 0 | plant response (RICE INDICA TOL; 0125 G/HA): 55 | plant response (RICE INDICA TOL; 0500 G/HA): 55 | plant response (RICE INDICA TOL; 2000 G/HA): 60

Source: US4965280A, “Antifungal carbinols” (E. I. Du Pont de Nemours and Company, priority 1989, dated 1990)
